Measurements taken from PMC8286840, “Identifying SARS-CoV-2 antiviral compounds by screening for small molecule inhibitors of Nsp3 papain-like protease” (Biochemical Journal, 2021).
Structures can show the parent of a compound that is named as a salt. Where two headings read alike, the source gives them in different places. Where a SMILES comes first, the peptide text is derived from it. [ ]: non-standard residue; d: D form. The star is where a group is joined. Benzoyl(4-tBu) = CC(C)(C)c1ccc(C(=O)*)cc1; Lys(Et2) = CCN(CC)CCCC[C@H](N)C(=O)O

Key:
[1] = biological target: T1, SARS-CoV-2 PLpro (nsp3 1564–1878) (Severe acute respiratory syndrome coronavirus 2, UniProt P0DTD1); experiment: biochemical; set-up: FRET-quenched peptide (Pro3) cleavage by PLpro, 10 min pre-incubation, slope over 20 min, normalised to no-compound control; conditions: high concentration screen
[2] = biological target: T1, SARS-CoV-2 PLpro (nsp3 1564–1878); experiment: biochemical; set-up: FRET-quenched peptide (Pro3) cleavage by PLpro, 10 min pre-incubation, slope over 20 min, normalised to no-compound control; conditions: low concentration screen
[3] = Well no.=2124, read-out: % of control remaining
[4] = Well no.=8010, read-out: % of control remaining
[5] = Well no.=8220, read-out: % of control remaining
[6] = Well no.=5557, read-out: % of control remaining
[7] = Well no.=3089, read-out: % of control remaining
[8] = Well no.=6646, read-out: % of control remaining
[9] = Well no.=1782, read-out: % of control remaining
[10] = Well no.=7313, read-out: % of control remaining
[11] = Well no.=1313, read-out: % of control remaining
[12] = Well no.=843, read-out: % of control remaining
[13] = Well no.=5179, read-out: % of control remaining
[14] = Well no.=92, read-out: % of control remaining
[15] = Well no.=2531, read-out: % of control remaining
[16] = Well no.=5408, read-out: % of control remaining
[17] = Well no.=4819, read-out: % of control remaining
[18] = Well no.=190, read-out: % of control remaining
[19] = Well no.=5859, read-out: % of control remaining
[20] = Well no.=2494, read-out: % of control remaining
[21] = read-out: % of control remaining, Well no.=149

SMILES: O=c1[nH]c(=O)n([C@H]2C[C@H](O)[C@@H](CO)O2)cc1F [Floxuridine]
- remaining activity at 3.75 µM [1, 3]: 102%
- remaining activity at 3.75 µM [1, 4]: 86.4%
- remaining activity at 1.25 µM [2, 3]: 98.1%
- remaining activity at 1.25 µM [2, 4]: 88%

SMILES: CCN(CC)CCCC[C@H](NC(=O)[C@H](CC(C)C)NC(=O)[C@H](C)NC(=O)[C@H](Cc1ccccc1)NC(=O)c1ccc(C(C)(C)C)cc1)C(=O)N[C@@H](CO)C(=O)OC [UNC3866] ({Benzoyl(4-tBu)}-FAL[Lys(Et2)]S-OMe)
- remaining activity at 3.75 µM [1, 5]: 103%
- remaining activity at 1.25 µM [2, 5]: 101%

SMILES: CC(C)(C#N)c1ccc(N2C(=O)OCc3cnc4ccc(-c5cnc6ccccc6c5)cc4c32)cc1 [ETP-46464]
- remaining activity at 3.75 µM [1, 6]: 97.9%
- remaining activity at 1.25 µM [2, 6]: 101%

SMILES: C=C(C)[C@@H]1CC[C@]2(C(=O)O)CC[C@]3(C)[C@H](CC[C@@H]4[C@@]5(C)CC[C@H](O)C(C)(C)[C@@H]5CC[C@]43C)[C@@H]12 [Betulinic acid]
- remaining activity at 3.75 µM [1, 7]: 101%
- remaining activity at 3.75 µM [1, 8]: 100%
- remaining activity at 1.25 µM [2, 7]: 102%
- remaining activity at 1.25 µM [2, 8]: 105%

SMILES: CC(=O)NC[C@H]1CN(c2ccc(N3CCOCC3)c(F)c2)C(=O)O1 [Linezolid]
- remaining activity at 3.75 µM [1, 9]: 98.8%
- remaining activity at 1.25 µM [2, 9]: 102%

SMILES: CNCC(O)c1ccc(O)cc1 (centres unmarked) [p-Synephrine]
- remaining activity at 3.75 µM [1, 10]: 102%
- remaining activity at 1.25 µM [2, 10]: 98.5%

SMILES: N=C(NC(=O)c1nc(Cl)c(N)nc1N)Nc1ccccc1 [Phenamil methanesulfonate]
- remaining activity at 3.75 µM [1, 11]: 99.6%
- remaining activity at 1.25 µM [2, 11]: 101%

SMILES: C[C@](N)(Cc1ccc(O)cc1)C(=O)O [L-alpha-Methyl-p-tyrosine]
- remaining activity at 3.75 µM [1, 12]: 106%
- remaining activity at 1.25 µM [2, 12]: 104%

SMILES: Cn1c(=O)cc(N2CCC[C@@H](N)C2)n(Cc2ccccc2C#N)c1=O [Alogliptin (SYR-322)]
- remaining activity at 3.75 µM [1, 13]: 97.5%
- remaining activity at 1.25 µM [2, 13]: 104%

SMILES: NC(=O)c1cc[n+](CC2=C(C(=O)O)N3C(=O)[C@@H](NC(=O)[C@@H](c4ccccc4)S(=O)(=O)[O-])[C@H]3SC2)cc1 [Cefsulodin sodium salt hydrate]
- remaining activity at 3.75 µM [1, 14]: 99.3%
- remaining activity at 1.25 µM [2, 14]: 98.3%

SMILES: NC(=O)c1ccc2[nH]ccc2c1 [p38 MAP Kinase Inhibitor VII, SD-169]
- remaining activity at 3.75 µM [1, 15]: 94.8%
- remaining activity at 1.25 µM [2, 15]: 99.1%

SMILES: COc1cc2c(c(OC)c1OC)-c1c(cc(OC)c(OC)c1OC)C[C@](C)(O)[C@@H](C)C2 [Schisandrin]
- remaining activity at 3.75 µM [1, 16]: 101%
- remaining activity at 1.25 µM [2, 16]: 95.6%

SMILES: O=P(O)(O)C(O)(Cc1cccnc1)P(=O)(O)O [Risedronate sodium]
- remaining activity at 3.75 µM [1, 17]: 102%
- remaining activity at 1.25 µM [2, 17]: 104%

SMILES: Oc1ccccc1O [Pyrocatechol]
- remaining activity at 3.75 µM [1, 18]: 98%
- remaining activity at 1.25 µM [2, 18]: 101%

SMILES: CC(=O)OCC(=O)[C@@]1(O)CC[C@H]2[C@@H]3CCC4=CC(=O)C=C[C@]4(C)[C@H]3[C@@H](O)C[C@@]21C [Prednisolone acetate]
- remaining activity at 3.75 µM [1, 19]: 95.6%
- remaining activity at 1.25 µM [2, 19]: 102%

SMILES: Brc1c(Br)c(Br)c2n[nH]nc2c1Br [TBB - 4,5,6,7-Tetrabromobenzotriazole]
- remaining activity at 3.75 µM [1, 20]: 103%
- remaining activity at 1.25 µM [2, 20]: 100%

SMILES: Nc1ccncc1 [4-Aminopyridine]
- remaining activity at 3.75 µM [1, 21]: 104%
- remaining activity at 1.25 µM [2, 21]: 104%
